# Earlier results in patent US12194068B2, “Dietary supplement composition for treating and managing acne” (CODEX LABS CORPORATION, priority 2023, dated 2025).
# Tested on: C. acnes
# Details: compared with benzoyl peroxide and erythromycin
smiles,measurement,value
Oc1ccc(C=Cc2cc(O)cc(O)c2)cc1 [resveratrol],inhibition of C. acnes proliferation,on par with benzoyl peroxide and erythromycin
